Laboratory results reported in BindingDB's records for doi:10.1021/acs.jnatprod.6b01127 (Beijing University of Chinese Medicine, 2017).

Biological target: Signal transducer and activator of transcription 3 (Homo sapiens, UniProt P40763)
Assay: Inhibition of IL-6-Induced STAT3 activation (unknown origin) expressed in human HepG2 cells expressing pSTAT3-luciferase pre-incubated for 1 hr before IL-6 stimulation for 6 hrs by luciferase reporter gene assay

Signal transducer and activator of transcription 3, sequence (P40763 whole entry): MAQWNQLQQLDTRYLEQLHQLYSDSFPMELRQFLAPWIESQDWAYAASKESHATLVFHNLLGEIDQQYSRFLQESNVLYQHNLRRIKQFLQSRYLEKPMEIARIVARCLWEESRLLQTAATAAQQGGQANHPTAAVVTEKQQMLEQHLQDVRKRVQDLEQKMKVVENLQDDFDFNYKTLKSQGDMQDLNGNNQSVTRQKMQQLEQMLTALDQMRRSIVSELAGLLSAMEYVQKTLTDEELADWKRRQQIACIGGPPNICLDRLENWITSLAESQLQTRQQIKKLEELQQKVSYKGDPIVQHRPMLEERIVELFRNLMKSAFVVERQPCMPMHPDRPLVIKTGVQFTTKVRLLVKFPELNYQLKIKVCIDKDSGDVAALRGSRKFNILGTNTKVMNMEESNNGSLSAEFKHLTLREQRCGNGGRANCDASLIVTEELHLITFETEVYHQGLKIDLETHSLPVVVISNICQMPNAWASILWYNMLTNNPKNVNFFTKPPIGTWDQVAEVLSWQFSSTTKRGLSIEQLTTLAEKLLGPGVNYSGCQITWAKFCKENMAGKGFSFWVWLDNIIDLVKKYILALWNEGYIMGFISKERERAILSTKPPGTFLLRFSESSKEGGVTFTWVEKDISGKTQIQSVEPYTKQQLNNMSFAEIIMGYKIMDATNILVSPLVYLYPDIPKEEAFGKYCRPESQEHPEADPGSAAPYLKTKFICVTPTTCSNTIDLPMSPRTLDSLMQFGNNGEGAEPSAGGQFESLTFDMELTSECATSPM

IC50	SMILES
22.9 µM	COC(=O)C1=CO[C@@H](O[C@@H]2O[C@H](CO)[C@@H](O)[C@H](O)[C@H]2O)[C@@H]2[C@H](C)[C@@H](O)C[C@H]12 [7-Epi-Loganin]
12.2 µM	COC(=O)C1=CO[C@@H](O[C@@H]2O[C@H](CO[C@@H]3C[C@@H]4C(C(=O)OC)=CO[C@@H](O[C@@H]5O[C@H](CO)[C@@H](O)[C@H](O)[C@H]5O)[C@@H]4[C@H](C)O3)[C@@H](O)[C@H](O)[C@H]2O)[C@@H]2[C@@H](C)[C@@H](O)C[C@H]12
> 100 µM	COC(=O)C1=CO[C@@H](O[C@@H]2O[C@H](CO[C@H]3C[C@@H]4C(C(=O)OC)=CO[C@@H](O[C@@H]5O[C@H](CO)[C@@H](O)[C@H](O)[C@H]5O)[C@@H]4[C@H](C)O3)[C@@H](O)[C@H](O)[C@H]2O)[C@@H]2[C@H](C)O[C@@H](OC)C[C@H]12
29.7 µM	COC(=O)C1=CO[C@@H](O[C@@H]2O[C@H](C)[C@@H](O)[C@H](O)[C@H]2O)[C@@H]2[C@H](C)O[C@@H](O[C@@H]3[C@@H](O)[C@H](O[C@@H]4OC=C(C(=O)OC)[C@H]5C[C@@H](OC)O[C@@H](C)[C@@H]45)O[C@H](CO)[C@H]3O)C[C@H]12
6.9 µM	COC(=O)C1=CO[C@@H](O[C@@H]2O[C@H](CO)[C@@H](O)[C@H](O)[C@H]2O)[C@@H]2[C@H](C)O[C@@H](O)C[C@H]12 [CHEBI:80852]
52.6 µM	COC(=O)C1=CO[C@@H](O[C@@H]2O[C@H](CO)[C@@H](O[C@H]3C[C@@H]4C(C(=O)OC)=CO[C@@H](O[C@@H]5O[C@H](C)[C@@H](O)[C@H](O)[C@H]5O)[C@@H]4[C@H](C)O3)[C@H](O)[C@H]2O)[C@@H]2[C@@H](C)[C@@H](O)C[C@H]12
> 100 µM	COC(=O)C1=CO[C@@H](O[C@@H]2O[C@H](CO)[C@@H](O)[C@H](O)[C@H]2O)[C@@H]2[C@H](C)O[C@@H](O[C@H]3[C@H](O[C@@H]4OC=C(C(=O)OC)[C@H]5C[C@H](OC)O[C@@H](C)[C@@H]45)O[C@H](CO)[C@@H](O)[C@@H]3O)C[C@H]12
79.1 µM	COC(=O)C1=CO[C@@H](O[C@@H]2O[C@H](C)[C@@H](O)[C@H](O)[C@H]2O)[C@@H]2[C@H](C)O[C@@H](O[C@H]3[C@H](O)[C@@H](O)[C@H](O[C@@H]4OC=C(C(=O)OC)[C@H]5C[C@H](OC)O[C@@H](C)[C@@H]45)O[C@@H]3CO)C[C@H]12
> 100 µM	CCO[C@H]1C[C@@H]2C(C(=O)OC)=CO[C@@H](O[C@@H]3O[C@H](CO[C@H]4C[C@@H]5C(C(=O)OC)=CO[C@@H](O[C@@H]6O[C@H](CO)[C@@H](O)[C@H](O)[C@H]6O)[C@@H]5[C@H](C)O4)[C@@H](O)[C@H](O)[C@H]3O)[C@@H]2[C@H](C)O1
32.5 µM	COC(=O)C1=CO[C@@H](O[C@@H]2O[C@H](CO)[C@@H](O)[C@H](O)[C@H]2O)[C@@H]2[C@H](C)O[C@H](OC)C[C@H]12
7 µM	COC(=O)C1=CO[C@@H](O[C@@H]2O[C@H](CO)[C@@H](O)[C@H](O)[C@H]2O)[C@@H]2[C@H](C)O[C@H](O)C[C@H]12 [(7Alpha-Hydroxy)-Morroniside]
71.9 µM	COC(=O)C1=CO[C@@H](O[C@@H]2O[C@H](CO)[C@@H](O)[C@H](O)[C@H]2O)[C@@H]2[C@@H](C)[C@@H](O[C@H]3C[C@@H]4C(C(=O)OC)=CO[C@@H](O[C@@H]5O[C@H](CO)[C@@H](O)[C@H](O)[C@H]5O)[C@@H]4[C@@H](C)O3)C[C@H]12
24.8 µM	O=c1c(-c2ccc(O)cc2)coc2cc(O)cc(O)c12 [Prunetol]
21.9 µM	COC(=O)C1=CO[C@@H](O[C@@H]2O[C@H](CO)[C@@H](O)[C@H](O)[C@H]2O)[C@@H]2[C@H](C)O[C@H](O[C@H]3[C@H](O[C@@H]4OC=C(C(=O)OC)[C@H]5C[C@H](OC)O[C@@H](C)[C@@H]45)O[C@H](CO)[C@@H](O)[C@@H]3O)C[C@H]12
> 100 µM	CCO[C@@H]1C[C@@H]2C(C(=O)OC)=CO[C@@H](O[C@@H]3O[C@H](CO[C@H]4C[C@@H]5C(C(=O)OC)=CO[C@@H](O[C@@H]6O[C@H](CO)[C@@H](O)[C@H](O)[C@H]6O)[C@@H]5[C@H](C)O4)[C@@H](O)[C@H](O)[C@H]3O)[C@@H]2[C@H](C)O1
43 µM	COC(=O)C1=CO[C@@H](O[C@@H]2O[C@H](CO[C@@H]3C[C@@H]4C(C(=O)OC)=CO[C@@H](O[C@@H]5O[C@H](CO)[C@@H](O)[C@H](O)[C@H]5O)[C@@H]4[C@H](C)O3)[C@@H](O)[C@H](O)[C@H]2O)[C@@H]2[C@H](C)O[C@@H](OC)C[C@H]12
40.5 µM	COC(=O)C1=CO[C@@H](O[C@@H]2O[C@H](CO)[C@@H](O)[C@H](O)[C@H]2O[C@@H]2C[C@@H]3C(C(=O)OC)=CO[C@@H](O[C@@H]4O[C@H](CO)[C@@H](O)[C@H](O)[C@H]4O)[C@@H]3[C@H](C)O2)[C@@H]2[C@@H](C)[C@@H](O)C[C@H]12
24.8 µM	COC(=O)C1=CO[C@@H](O[C@@H]2O[C@H](CO)[C@@H](O)[C@H](O)[C@H]2O)[C@@H]2[C@H](C)O[C@@H](OC)C[C@H]12
11.9 µM	COC(=O)C1=CO[C@@H](O[C@@H]2O[C@H](C)[C@@H](O)[C@H](O)[C@H]2O)[C@@H]2[C@H](C)O[C@@H](O[C@@H]3[C@@H](O)[C@H](O[C@@H]4OC=C(C(=O)OC)[C@H]5C[C@H](OC)O[C@@H](C)[C@@H]45)O[C@H](CO)[C@H]3O)C[C@H]12
> 100 µM	CCO[C@@H]1C[C@@H]2C(C(=O)OC)=CO[C@@H](O[C@@H]3O[C@H](CO)[C@@H](O)[C@H](O)[C@H]3O)[C@@H]2[C@H](C)O1
27.6 µM	COC(=O)C1=CO[C@@H](O[C@@H]2O[C@H](CO[C@@H]3C[C@@H]4C(C(=O)OC)=CO[C@@H](O[C@@H]5O[C@H](CO)[C@@H](O)[C@H](O)[C@H]5O)[C@@H]4[C@H](C)O3)[C@@H](O)[C@H](O)[C@H]2O)[C@@H]2[C@H](C)O[C@H](OC)C[C@H]12
19.4 µM	COC(=O)C1=CO[C@@H](O[C@@H]2O[C@H](CO)[C@@H](O)[C@H](O)[C@H]2O)[C@@H]2[C@H](C)O[C@H](O[C@H]3[C@H](O[C@@H]4OC=C(C(=O)OC)[C@H]5C[C@@H](OC)O[C@@H](C)[C@@H]45)O[C@H](CO)[C@@H](O)[C@@H]3O)C[C@H]12
47 µM	COC(=O)C1=CO[C@@H](O[C@@H]2O[C@H](CO)[C@@H](O)[C@H](O)[C@H]2O)[C@@H]2[C@H](C)O[C@@H](OC[C@H]3O[C@@H](O[C@@H]4OC=C(C(=O)OC)[C@H]5C[C@@H](OC)O[C@@H](C)[C@@H]45)[C@H](O)[C@@H](O)[C@@H]3O)C[C@H]12
67 µM	CCO[C@H]1C[C@@H]2C(C(=O)OC)=CO[C@@H](O[C@@H]3O[C@H](CO)[C@@H](O)[C@H](O)[C@H]3O)[C@@H]2[C@H](C)O1
14 µM	COC(=O)C1=CO[C@@H](O[C@@H]2O[C@H](CO)[C@@H](O)[C@H](O)[C@H]2O)[C@@H]2[C@@H](C)[C@@H](O)C[C@H]12 [Loganin]

SMILES	IC50
C=C[C@H]1[C@H](O[C@@H]2O[C@H](CO)[C@@H](O)[C@H](O)[C@H]2O)OC=C2C(=O)OCC[C@H]21 [CHEBI:80907]	89.5 µM
